Test results from US10670605B2, “Cysteine reactive probes and uses thereof” (The Scripps Research Institute, priority 2015, dated 2020).

Columns and labels:
Assay in all cases: Competitive isoTOP-ABPP in situ (fragment-treated cells)
Assay type in all cases: cell-based
[1] = biological target: T1, cysteines in MDA-MB-231 and Ramos cells (Homo sapiens, UniProt O95336); conditions: 200 μM, insitu
T1 sequence (O95336 1-258): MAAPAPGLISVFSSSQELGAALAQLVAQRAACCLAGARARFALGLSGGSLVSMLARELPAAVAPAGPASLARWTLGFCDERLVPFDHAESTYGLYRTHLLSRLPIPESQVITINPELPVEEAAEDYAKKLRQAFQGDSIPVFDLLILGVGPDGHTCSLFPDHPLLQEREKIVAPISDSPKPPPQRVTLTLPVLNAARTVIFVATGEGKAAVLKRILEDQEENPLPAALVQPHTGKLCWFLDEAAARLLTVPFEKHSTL

[2] = biological target: cysteines in MDA-MB-231 and Ramos cells (Homo sapiens, UniProt P04406); conditions: 200 μM, insitu
cysteines in MDA-MB-231 and Ramos cells (Homo sapiens, UniProt P04406), sequence (P04406 whole entry): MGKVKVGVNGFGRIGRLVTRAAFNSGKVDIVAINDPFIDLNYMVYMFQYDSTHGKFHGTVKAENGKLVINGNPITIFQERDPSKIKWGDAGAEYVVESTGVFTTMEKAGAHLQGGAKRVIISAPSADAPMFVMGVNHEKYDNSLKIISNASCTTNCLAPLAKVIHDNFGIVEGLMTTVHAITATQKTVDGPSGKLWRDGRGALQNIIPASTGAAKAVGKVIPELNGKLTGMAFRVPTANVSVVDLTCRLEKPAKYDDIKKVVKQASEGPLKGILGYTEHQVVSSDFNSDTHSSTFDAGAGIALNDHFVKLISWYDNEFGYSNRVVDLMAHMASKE

[3] = biological target: T2, cysteines in MDA-MB-231 and Ramos cells (Homo sapiens, UniProt P42166); conditions: 200 μM, insitu
T2 sequence (P42166 1-694): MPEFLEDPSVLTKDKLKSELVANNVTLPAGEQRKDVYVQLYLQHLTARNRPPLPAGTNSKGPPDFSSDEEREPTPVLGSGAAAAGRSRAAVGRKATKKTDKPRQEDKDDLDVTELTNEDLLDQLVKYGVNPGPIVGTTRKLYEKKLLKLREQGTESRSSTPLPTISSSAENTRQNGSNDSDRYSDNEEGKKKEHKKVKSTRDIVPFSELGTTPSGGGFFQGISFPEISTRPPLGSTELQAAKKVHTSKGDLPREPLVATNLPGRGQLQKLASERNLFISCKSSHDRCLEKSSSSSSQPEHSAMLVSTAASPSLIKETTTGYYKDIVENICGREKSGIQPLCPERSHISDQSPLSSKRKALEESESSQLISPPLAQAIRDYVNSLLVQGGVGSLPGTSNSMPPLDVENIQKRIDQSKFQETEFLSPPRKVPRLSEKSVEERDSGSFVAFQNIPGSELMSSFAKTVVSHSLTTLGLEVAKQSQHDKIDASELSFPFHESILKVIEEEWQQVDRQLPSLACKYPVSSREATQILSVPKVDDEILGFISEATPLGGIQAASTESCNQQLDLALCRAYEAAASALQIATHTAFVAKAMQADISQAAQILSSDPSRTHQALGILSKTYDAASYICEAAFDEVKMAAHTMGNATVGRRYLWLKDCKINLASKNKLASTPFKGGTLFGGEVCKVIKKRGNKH

[4] = biological target: cysteines in MDA-MB-231 and Ramos cells (Homo sapiens, UniProt Q16831); conditions: 200 μM, insitu, 231
cysteines in MDA-MB-231 and Ramos cells (Homo sapiens, UniProt Q16831), sequence (Q16831 whole entry): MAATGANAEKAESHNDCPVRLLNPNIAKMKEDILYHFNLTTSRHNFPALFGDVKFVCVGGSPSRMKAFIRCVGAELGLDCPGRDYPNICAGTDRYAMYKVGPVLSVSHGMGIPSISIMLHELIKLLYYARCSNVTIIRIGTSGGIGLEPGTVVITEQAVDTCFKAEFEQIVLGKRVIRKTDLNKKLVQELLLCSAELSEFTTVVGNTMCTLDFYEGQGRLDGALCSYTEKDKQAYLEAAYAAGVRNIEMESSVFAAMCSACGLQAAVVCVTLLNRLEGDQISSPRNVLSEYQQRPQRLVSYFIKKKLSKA

[5] = biological target: T3, cysteines in MDA-MB-231 and Ramos cells (Homo sapiens, UniProt Q96AB3); conditions: 200 μM, insitu
T3 sequence (Q96AB3 1-205): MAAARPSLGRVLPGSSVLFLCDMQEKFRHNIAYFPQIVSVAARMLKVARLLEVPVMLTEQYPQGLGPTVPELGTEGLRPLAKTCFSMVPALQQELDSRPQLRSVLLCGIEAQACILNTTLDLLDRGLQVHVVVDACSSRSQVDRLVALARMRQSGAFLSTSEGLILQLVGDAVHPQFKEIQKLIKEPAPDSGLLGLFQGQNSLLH

[6] = biological target: T4, cysteines in MDA-MB-231 and Ramos cells (Homo sapiens, UniProt Q9BVC5); conditions: 200 μM, insitu
T4 sequence (Q9BVC5 1-232): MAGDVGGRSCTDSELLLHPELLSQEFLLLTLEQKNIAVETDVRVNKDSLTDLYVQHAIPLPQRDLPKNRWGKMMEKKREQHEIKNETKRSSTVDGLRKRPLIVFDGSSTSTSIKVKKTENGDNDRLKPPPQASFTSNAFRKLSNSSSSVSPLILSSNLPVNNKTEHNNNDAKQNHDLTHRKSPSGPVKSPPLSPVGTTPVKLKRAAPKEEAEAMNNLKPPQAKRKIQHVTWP

[7] = biological target: T5, cysteines in MDA-MB-231 and Ramos cells (Homo sapiens, UniProt Q9NVC6); conditions: 200 μM, insitu
T5 sequence (Q9NVC6 1-651): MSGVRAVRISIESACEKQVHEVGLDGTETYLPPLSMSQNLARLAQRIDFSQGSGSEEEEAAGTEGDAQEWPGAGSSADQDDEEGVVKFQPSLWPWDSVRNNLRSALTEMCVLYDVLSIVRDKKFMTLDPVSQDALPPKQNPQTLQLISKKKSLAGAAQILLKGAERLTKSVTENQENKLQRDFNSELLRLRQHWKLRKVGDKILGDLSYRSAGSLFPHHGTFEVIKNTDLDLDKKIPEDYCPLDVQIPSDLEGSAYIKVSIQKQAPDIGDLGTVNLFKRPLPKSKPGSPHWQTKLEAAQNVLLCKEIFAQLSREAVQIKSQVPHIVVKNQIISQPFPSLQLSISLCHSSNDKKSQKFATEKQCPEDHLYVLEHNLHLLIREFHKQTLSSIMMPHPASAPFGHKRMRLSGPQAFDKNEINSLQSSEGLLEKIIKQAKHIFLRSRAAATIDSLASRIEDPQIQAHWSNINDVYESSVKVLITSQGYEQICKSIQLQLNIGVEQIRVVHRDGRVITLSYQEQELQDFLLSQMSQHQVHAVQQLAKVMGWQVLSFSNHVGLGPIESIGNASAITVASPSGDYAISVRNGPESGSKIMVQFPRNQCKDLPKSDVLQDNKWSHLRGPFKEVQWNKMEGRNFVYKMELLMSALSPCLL

[8] = biological target: cysteines in MDA-MB-231 and Ramos cells (Homo sapiens, UniProt Q9Y696); conditions: 200 μM, insitu
cysteines in MDA-MB-231 and Ramos cells (Homo sapiens, UniProt Q9Y696), sequence (Q9Y696 whole entry): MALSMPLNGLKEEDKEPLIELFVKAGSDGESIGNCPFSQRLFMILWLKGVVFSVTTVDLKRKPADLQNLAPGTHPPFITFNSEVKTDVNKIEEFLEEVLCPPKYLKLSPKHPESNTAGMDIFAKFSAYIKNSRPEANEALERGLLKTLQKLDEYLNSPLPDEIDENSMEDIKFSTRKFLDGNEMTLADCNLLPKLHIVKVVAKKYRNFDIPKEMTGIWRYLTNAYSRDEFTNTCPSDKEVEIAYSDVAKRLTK

[9] = biological target: T6, cysteines in MDA-MB-231 and Ramos cells (Homo sapiens, UniProt Q99439); conditions: 200 μM, insitu
T6 sequence (Q99439 1-309): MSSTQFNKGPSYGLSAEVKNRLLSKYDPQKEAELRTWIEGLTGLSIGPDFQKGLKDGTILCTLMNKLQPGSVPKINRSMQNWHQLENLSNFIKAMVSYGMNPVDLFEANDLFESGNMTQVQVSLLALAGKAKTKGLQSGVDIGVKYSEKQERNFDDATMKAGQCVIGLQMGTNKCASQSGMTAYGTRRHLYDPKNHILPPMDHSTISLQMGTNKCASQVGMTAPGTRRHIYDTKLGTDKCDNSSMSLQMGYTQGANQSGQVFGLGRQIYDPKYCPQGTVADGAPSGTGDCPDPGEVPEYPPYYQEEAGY

SMILES	isoTOP-ABPP ratio P04406_C152 [2]; 231	isoTOP-ABPP ratio P42166_C341 [3]; 231	isoTOP-ABPP ratio P42166_C561 [3]; 231	isoTOP-ABPP ratio Q16831_C162 [4]	isoTOP-ABPP ratio Q96AB3_C114 [5]; 231	isoTOP-ABPP ratio Q9BVC5_C10 [6]; 231	isoTOP-ABPP ratio Q9NVC6_C649 [7]; 231	isoTOP-ABPP ratio Q9Y696_C35 [8]; 231	isoTOP-ABPP ratio Q99439_C164 [9]; 231	isoTOP-ABPP ratio O95336_C32 ([1]; ramos)	isoTOP-ABPP ratio P04406_C152 ([2]; ramos)	isoTOP-ABPP ratio P42166_C561 ([3]; ramos)	isoTOP-ABPP ratio Q99439_C164 ([9]; ramos)	isoTOP-ABPP ratio P42166_C684 [3]; 231	other results
CC(C)CCOCCNC(=O)CCl [compound 27]	0.5	0.6	0.8	0.5	1.0	1.1	1.3	1.0	–	–	–	–	–	–	isoTOP-ABPP ratio O95336_C32 [1]; 231: 0.5
O=C(CCl)N1CCN(CC(=O)N2CCOCC2)CC1 [compound 29]	–	–	–	–	–	–	–	–	–	3.0	1.2	0.9	1.0	–	isoTOP-ABPP ratio P42166_C629 ([3]; ramos): 1.6; isoTOP-ABPP ratio Q96AB3_C114 ([5]; ramos): 1.1; isoTOP-ABPP ratio Q9BVC5_C10 ([6]; ramos): 1.8; isoTOP-ABPP ratio Q9NVC6_C649 ([7]; ramos): 1.6; isoTOP-ABPP ratio Q9Y696_C35 ([8]; ramos): 1.0
C=CC(=O)N(Cc1cccnc1)c1cc(C(F)(F)F)cc(C(F)(F)F)c1 [compound 31]	0.8	–	1.3	–	0.7	–	0.8	0.6	0.7	1.7	1.0	2.5	1.3	–	isoTOP-ABPP ratio P42166_C341 ([3]; ramos): 2.0; isoTOP-ABPP ratio P42166_C684 ([3]; ramos): 3.3
CC1CCc2ccccc2N1C(=O)CCl (stereo not shown) [compound 45]	20.0	–	20.0	1.3	3.1	3.4	20.0	1.4	1.8	–	–	–	–	6.8	–

Now from value to compound, other results behind:

isoTOP-ABPP ratio P04406_C152 [2]; 231	isoTOP-ABPP ratio P42166_C341 [3]; 231	isoTOP-ABPP ratio P42166_C561 [3]; 231	isoTOP-ABPP ratio Q16831_C162 [4]	isoTOP-ABPP ratio Q96AB3_C114 [5]; 231	isoTOP-ABPP ratio Q9BVC5_C10 [6]; 231	isoTOP-ABPP ratio Q9NVC6_C649 [7]; 231	isoTOP-ABPP ratio Q9Y696_C35 [8]; 231	isoTOP-ABPP ratio Q99439_C164 [9]; 231	isoTOP-ABPP ratio O95336_C32 ([1]; ramos)	isoTOP-ABPP ratio P04406_C152 ([2]; ramos)	isoTOP-ABPP ratio P42166_C561 ([3]; ramos)	isoTOP-ABPP ratio Q99439_C164 ([9]; ramos)	isoTOP-ABPP ratio P42166_C684 [3]; 231	SMILES	other results
0.8	–	1.1	0.7	0.8	0.9	1.1	2.7	0.9	–	–	–	–	–	COc1ccccc1OCCNC(=O)CCl [compound 28]	–
1.0	1.2	1.3	1.1	0.8	1.0	–	2.6	–	–	–	–	–	1.2	O=C(CCl)Nc1cccc2ncccc12 [compound 51]	–
